Literature values, collected in patent publication US20100239682A1, “COLONIC DELIVERY OF ANTIMICROBIAL AGENTS” (priority 2007, published 2010).

Assays:
[1] = human volunteers, high doses
Enterobacteriaceae = details: human volunteers, oral, different dosages

colistin [Colimycin]
tolerance at the gastric level [1]: very poorly tolerated | effectiveness at achieving selective decontamination (Enterobacteriaceae): only high dosages of Colimycin were effective
